# Starred links: 1 amine or outer side, 2 acyl side, 3 side chain; linkers in the order of their positions; H or OH if unused. Positions of bridges follow the written chain, without caps; N, C: chain ends. Non-standard residues stand in square brackets, D forms with d. Residues, ends and D or L forms follow the SMILES beside them. Bip(4'-COOH) = N[C@@H](Cc1ccc(-c2ccc(C(=O)O)cc2)cc1)C(=O)O; Bip(4'-NHAc) = CC(=O)Nc1ccc(-c2ccc(C[C@H](N)C(=O)O)cc2)cc1; Phe(3-CH2NH2) = O=C([C@H](Cc1cccc(CN[*:3])c1)N[*:1])[*:2]; Ala(morpholin-4-yl) = N[C@@H](CN1CCOCC1)C(=O)O; Bip = N[C@@H](Cc1ccc(-c2ccccc2)cc1)C(=O)O; Morpholine(3S-CO) = O=C(O)[C@@H]1COCCN1; Pro(4S-NH2) = N[C@@H]1CN[C@H](C(=O)O)C1; Val(3-OH) = CC(C)(O)[C@H](N)C(=O)O; cisHyp = O=C(O)[C@@H]1C[C@H](O)CN1; h4Pal = N[C@@H](CCc1ccncc1)C(=O)O; 2Pal = N[C@@H](Cc1ccccn1)C(=O)O; 3Pal = N[C@@H](Cc1cccnc1)C(=O)O; Cha = N[C@@H](CC1CCCCC1)C(=O)O; Pip = O=C(O)[C@@H]1CCCCN1; Aze = O=C(O)[C@@H]1CCN1; Sar = CNCC(=O)O
# Biological target: TNFα (Homo sapiens, UniProt P01375)
# Test: TNF-Induced HEK-Blue Assay
# Type: cell-based
# Settings: HEK-Blue-CD40L cells, NF-kB-driven secreted alkaline phosphatase reporter; TNFα 0.5 ng/ml; 18 h; read-out: TNF induced HEK-Blue assay IC50 value
# TNFα, sequence (P01375 77-233 limits assumed): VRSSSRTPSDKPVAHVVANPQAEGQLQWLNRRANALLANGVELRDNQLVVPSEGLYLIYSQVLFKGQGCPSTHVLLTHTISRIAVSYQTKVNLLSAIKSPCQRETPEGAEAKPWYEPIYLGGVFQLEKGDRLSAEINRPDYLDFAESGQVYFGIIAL
row,SMILES,IC50
1,CC(=O)Nc1ccc(-c2ccc(C[C@@H]3NC(=O)[C@H](Cc4ccc(-c5ccccc5)cc4)NC(=O)[C@H](C(C)(C)O)NC(=O)CSC[C@@H](C(=O)NCC(N)=O)NC(=O)[C@H](CC(C)C)NC(=O)[C@H](Cc4ccc(O)cc4)NC(=O)[C@H](C(C)C)NC(=O)[C@@H]4CCCN4C(=O)[C@H](C(C)C)NC(=O)[C@@H](CCCNC(=N)N)NC(=O)[C@H](CC(=O)O)NC(=O)[C@H](Cc4ccccn4)NC(=O)CN(C)C3=O)cc2)cc1 [Example 175] ({CH2CO}-[Val(3-OH)][Bip][Bip(4'-NHAc)][Sar][2Pal]D[dR]VPVYLCG-NH2; thioether N-13),< 50 nM
2,CC(=O)Nc1ccc(-c2ccc(C[C@@H]3NC(=O)[C@H](Cc4ccc(-c5ccccc5)cc4)NC(=O)[C@H](C(C)(C)O)NC(=O)CSC[C@@H](C(=O)NCC(N)=O)NC(=O)[C@H](CC(C)C)NC(=O)[C@H](Cc4ccc(O)cc4)NC(=O)[C@H](C(C)C)NC(=O)[C@@H]4CCCN4C(=O)[C@H](Cc4ccc(O)cc4)NC(=O)[C@@H](CCCNC(=N)N)NC(=O)[C@H](CC(=O)O)NC(=O)[C@H](Cc4ccccn4)NC(=O)CN(C)C3=O)cc2)cc1 [Example 178] ({CH2CO}-[Val(3-OH)][Bip][Bip(4'-NHAc)][Sar][2Pal]D[dR]YPVYLCG-NH2; thioether N-13),< 50 nM
3,CC(=O)Nc1ccc(-c2ccc(C[C@@H]3NC(=O)[C@H](Cc4ccc(-c5ccccc5)cc4)NC(=O)[C@H](CN4CCOCC4)NC(=O)CSC[C@@H](C(=O)NCC(N)=O)NC(=O)[C@H](CC(C)C)NC(=O)[C@H](Cc4ccc(O)cc4)NC(=O)[C@H](C(C)C)NC(=O)[C@@H]4CCCN4C(=O)[C@H](C(C)C)NC(=O)[C@@H](CCCNC(=N)N)NC(=O)[C@H](CC(=O)O)NC(=O)[C@@H]4CCCCN4C(=O)CN(C)C3=O)cc2)cc1 [Example 182] ({CH2CO}-[Ala(morpholin-4-yl)][Bip][Bip(4'-NHAc)][Sar][Pip]D[dR]VPVYLCG-NH2; thioether N-13),50 to 200 nM
4,CC(=O)Nc1ccc(-c2ccc(C[C@@H]3NC(=O)[C@H](Cc4ccc(-c5ccccc5)cc4)NC(=O)[C@H](CN4CCOCC4)NC(=O)CSC[C@@H](C(=O)NCC(N)=O)NC(=O)[C@H](CC(C)C)NC(=O)[C@H](Cc4ccc(O)cc4)NC(=O)[C@H](C(C)C)NC(=O)[C@@H]4CCCN4C(=O)[C@H](C(C)C)NC(=O)[C@@H](CCCNC(=N)N)NC(=O)[C@H](CC(=O)O)NC(=O)[C@@H]4C[C@H](O)CN4C(=O)CN(C)C3=O)cc2)cc1 [Example 183] ({CH2CO}-[Ala(morpholin-4-yl)][Bip][Bip(4'-NHAc)][Sar][cisHyp]D[dR]VPVYLCG-NH2; thioether N-13),50 to 200 nM
5,CC(=O)Nc1ccc(-c2ccc(C[C@@H]3NC(=O)[C@H](Cc4ccc(-c5ccccc5)cc4)NC(=O)[C@H](CN4CCOCC4)NC(=O)CSC[C@@H](C(=O)NCC(N)=O)NC(=O)[C@H](CC(C)C)NC(=O)[C@H](Cc4ccc(O)cc4)NC(=O)[C@H](C(C)C)NC(=O)[C@@H]4CCCN4C(=O)[C@H](C(C)C)NC(=O)[C@@H](CCCNC(=N)N)NC(=O)[C@H](CC(=O)O)NC(=O)[C@@H]4C[C@H](N)CN4C(=O)CN(C)C3=O)cc2)cc1 [Example 184] ({CH2CO}-[Ala(morpholin-4-yl)][Bip][Bip(4'-NHAc)][Sar][Pro(4S-NH2)]D[dR]VPVYLCG-NH2; thioether N-13),< 50 nM
6,CC(C)C[C@@H]1NC(=O)[C@H](Cc2ccc(O)cc2)NC(=O)[C@H](C(C)C)NC(=O)[C@@H]2CCCN2C(=O)[C@H](C(C)C)NC(=O)[C@@H](CCCNC(=N)N)NC(=O)[C@H](CC(=O)O)NC(=O)[C@H](Cc2ccc(O)cc2)NC(=O)CN(C)C(=O)[C@H](Cc2ccc(-c3ccccc3)cc2)NC(=O)[C@H](Cc2ccc(-c3ccc(C(=O)O)cc3)cc2)NC(=O)[C@H](CCc2ccncc2)NC(=O)CSC[C@@H](C(=O)NCC(N)=O)NC1=O [Example 186] ({CH2CO}-[h4Pal][Bip(4'-COOH)][Bip][Sar]YD[dR]VPVYLCG-NH2; thioether N-13),50 to 200 nM
7,CC(C)C[C@@H]1NC(=O)[C@H](Cc2ccc(O)cc2)NC(=O)[C@H](C(C)C)NC(=O)[C@@H]2CCCN2C(=O)[C@H](C(C)C)NC(=O)[C@@H](CCCNC(=N)N)NC(=O)[C@H](CC(=O)O)NC(=O)[C@H](Cc2ccc(O)cc2)NC(=O)CN(C)C(=O)[C@H](Cc2ccc(-c3ccccc3)cc2)NC(=O)[C@H](Cc2ccc(-c3ccc(C(=O)O)cc3)cc2)NC(=O)[C@H](CC2CCCCC2)NC(=O)CSC[C@@H](C(=O)NCC(N)=O)NC1=O [Example 187] ({CH2CO}-[Cha][Bip(4'-COOH)][Bip][Sar]YD[dR]VPVYLCG-NH2; thioether N-13),50 to 200 nM

# Second part, the molecule after the results:
row,IC50,SMILES
1,50 to 200 nM,CC(=O)Nc1ccc(-c2ccc(C[C@@H]3NC(=O)[C@H](Cc4ccc(-c5ccccc5)cc4)NC(=O)[C@H](CN4CCOCC4)NC(=O)CSC[C@@H](C(=O)NCC(N)=O)NC(=O)[C@H](CC(C)C)NC(=O)[C@H](Cc4ccc(O)cc4)NC(=O)[C@H](C(C)C)NC(=O)[C@@H]4CCCN4C(=O)[C@H](CC(N)=O)NC(=O)[C@@H](CCCNC(=N)N)NC(=O)[C@H](CC(=O)O)NC(=O)[C@H](Cc4ccccn4)NC(=O)CN(C)C3=O)cc2)cc1 [Example 173] ({CH2CO}-[Ala(morpholin-4-yl)][Bip][Bip(4'-NHAc)][Sar][2Pal]D[dR]NPVYLCG-NH2; thioether N-13)
2,50 to 200 nM,CC(=O)Nc1ccc(-c2ccc(C[C@@H]3NC(=O)[C@H](Cc4ccc(-c5ccccc5)cc4)NC(=O)[C@H](CN4CCOCC4)NC(=O)CSC[C@@H](C(=O)NCC(N)=O)NC(=O)[C@H](CC(C)C)NC(=O)[C@H](Cc4ccccc4)NC(=O)[C@H](C(C)C)NC(=O)[C@@H]4CCCN4C(=O)[C@H](C(C)C)NC(=O)[C@@H](CCCNC(=N)N)NC(=O)[C@H](CC(=O)O)NC(=O)[C@H](Cc4ccccc4)NC(=O)CN(C)C3=O)cc2)cc1 [Example 174] ({CH2CO}-[Ala(morpholin-4-yl)][Bip][Bip(4'-NHAc)][Sar]FD[dR]VPVFLCG-NH2; thioether N-13)
3,< 50 nM,CC(=O)Nc1ccc(-c2ccc(C[C@@H]3NC(=O)[C@H](Cc4ccc(-c5ccccc5)cc4)NC(=O)[C@H](CN4CCOCC4)NC(=O)CSC[C@@H](C(=O)NCC(N)=O)NC(=O)[C@H](CC(C)C)NC(=O)[C@H](Cc4cccnc4)NC(=O)[C@H](C(C)C)NC(=O)[C@@H]4CCCN4C(=O)[C@H](C(C)C)NC(=O)[C@@H](CCCNC(=N)N)NC(=O)[C@H](CC(=O)O)NC(=O)[C@H](Cc4ccccn4)NC(=O)CN(C)C3=O)cc2)cc1 [Example 176] ({CH2CO}-[Ala(morpholin-4-yl)][Bip][Bip(4'-NHAc)][Sar][2Pal]D[dR]VPV[3Pal]LCG-NH2; thioether N-13)
4,50 to 200 nM,CC(=O)Nc1ccc(-c2ccc(C[C@@H]3NC(=O)[C@H](Cc4ccc(-c5ccccc5)cc4)NC(=O)[C@H](CN4CCOCC4)NC(=O)CSC[C@@H](C(=O)NCC(N)=O)NC(=O)[C@H](CC(C)C)NC(=O)[C@H](Cc4ccc(O)cc4)NC(=O)[C@H](C(C)C)NC(=O)[C@@H]4CCCN4C(=O)[C@H](Cc4ccc(O)cc4)NC(=O)[C@@H](CCCNC(=N)N)NC(=O)[C@H](CC(=O)O)NC(=O)[C@H](Cc4ccccn4)NC(=O)CN(C)C3=O)cc2)cc1 [Example 177] ({CH2CO}-[Ala(morpholin-4-yl)][Bip][Bip(4'-NHAc)][Sar][2Pal]D[dR]YPVYLCG-NH2; thioether N-13)
5,50 to 200 nM,CC(=O)Nc1ccc(-c2ccc(C[C@@H]3NC(=O)[C@H](Cc4ccc(-c5ccccc5)cc4)NC(=O)[C@H](CN4CCOCC4)NC(=O)CSC[C@@H](C(=O)N[C@@H](CCCCN)C(=O)O)NC(=O)[C@H](CC(C)C)NC(=O)[C@H](Cc4ccc(O)cc4)NC(=O)[C@H](C(C)C)NC(=O)[C@@H]4CCCN4C(=O)[C@H](C(C)C)NC(=O)[C@@H](CCCNC(=N)N)NC(=O)[C@H](CC(=O)O)NC(=O)[C@H](Cc4ccccn4)NC(=O)CN(C)C3=O)cc2)cc1 [Example 179] ({CH2CO}-[Ala(morpholin-4-yl)][Bip][Bip(4'-NHAc)][Sar][2Pal]D[dR]VPVYLCK-OH; thioether N-13)
6,50 to 200 nM,CC(=O)Nc1ccc(-c2ccc(C[C@@H]3NC(=O)[C@H](Cc4ccc(-c5ccccc5)cc4)NC(=O)[C@H](CN4CCOCC4)NC(=O)CSC[C@@H](C(=O)NCC(N)=O)NC(=O)[C@H](CC(C)C)NC(=O)[C@H](Cc4ccc(O)cc4)NC(=O)[C@H](C(C)C)NC(=O)[C@@H]4COCCN4C(=O)[C@H](C(C)C)NC(=O)[C@@H](CCCNC(=N)N)NC(=O)[C@H](CC(=O)O)NC(=O)[C@H](Cc4ccccn4)NC(=O)CN(C)C3=O)cc2)cc1 [Example 180] ({CH2CO}-[Ala(morpholin-4-yl)][Bip][Bip(4'-NHAc)][Sar][2Pal]D[dR]V[Morpholine(3S-CO)]VYLCG-NH2; thioether N-13)
7,< 50 nM,CC(=O)Nc1ccc(-c2ccc(C[C@@H]3NC(=O)[C@H](Cc4ccc(-c5ccc(C(=O)O)cc5)cc4)NC(=O)[C@H](CN4CCOCC4)NC(=O)CSC[C@@H](C(=O)NCC(N)=O)NC(=O)[C@H](CC(C)C)NC(=O)[C@H](Cc4cccc(CN)c4)NC(=O)[C@H](C(C)C)NC(=O)[C@@H]4CCN4C(=O)[C@H](C(C)C)NC(=O)[C@@H](CCCNC(=N)N)NC(=O)[C@H](CC(=O)O)NC(=O)[C@H](Cc4ccccn4)NC(=O)CN(C)C3=O)cc2)cc1 [Example 181] ({CH2CO}-[Ala(morpholin-4-yl)][Bip(4'-COOH)][Bip(4'-NHAc)][Sar][2Pal]D[dR]V[Aze]V[Phe(3-CH2NH2)]LCG-NH2; thioether N-13)
8,< 50 nM,CC(=O)Nc1ccc(-c2ccc(C[C@@H]3NC(=O)[C@H](Cc4ccc(-c5ccc(C(=O)O)cc5)cc4)NC(=O)[C@H](CN4CCOCC4)NC(=O)CSC[C@@H](C(=O)NCC(N)=O)NC(=O)[C@H](CC(C)C)NC(=O)[C@H](CCCNC(=N)N)NC(=O)[C@H](C(C)C)NC(=O)[C@@H]4CCN4C(=O)[C@H](C(C)C)NC(=O)[C@@H](CCCNC(=N)N)NC(=O)[C@H](CC(=O)O)NC(=O)[C@H](Cc4ccccn4)NC(=O)CN(C)C3=O)cc2)cc1 [Example 185] ({CH2CO}-[Ala(morpholin-4-yl)][Bip(4'-COOH)][Bip(4'-NHAc)][Sar][2Pal]D[dR]V[Aze]VRLCG-NH2; thioether N-13)

# From patent publication US20250145665A1, “MACROCYCLIC PEPTIDES USEFUL AS MODULATORS OF TNF ALPHA” (Bristol-Myers Squibb Company, priority 2023, published 2025)
